Some results are limits rather than exact numbers.

In general, half-life refers to the time needed for the level to fall by half in the phase considered. High values mean slow decline, low ones rapid decline.

The nature of data set [1]: Pharmacokinetic experiment in rats (iv and PO administration). The data set is classed as in vivo. The conditions noted are these: male, rat, plasma, SD rats, 5 mg/kg; for AUC(0-t): read-out: AUC0-24h. The text has this:
Polyethylene glycol 400 (lot number R22040588, Shanghai Shaoyuan Reagent Co., Ltd.), DMSO (lot number 20200319, Guangdong Guanghua Sci-Tech Co., Ltd.), Sodium Chloride Physiological Solution (lot number 2011110727, Chenxin Pharmaceutical Co., Ltd.). LC-MS instrument (Thermo Fisher Ultimate 3000 UPLC, TSQ QUANTUM ULTRA triple quadrupole mass spectrometer, AB SCIEX 5500+ QTARP).
SD rats: Male, 180-250 g, purchased from Guangdong Vital River Laboratory Animal Technology Co., Ltd.
The test compound powder was accurately weighed and completely dissolved in DMSO. PEG-400 was added, vortexed and sonicated to mix, then sodium chloride physiological solution was added, vortexed and sonicated to mix to form a 0.5 mg/mL solution (DMSO:PEG-400:NS = 5:60:35, V/V/V). For oral gavage administration, the dose was 10 mL/kg; for intravenous administration, the dose was 2 mL/kg.
After intravenous or oral gavage administration to rats, venous blood (200 µL) was collected at 5 min (not collected for oral gavage administration), 15 min, 30 min, 1 h, 2 h, 5 h, 7 h, and 24 h into EDTA-K2-anticoagulated EP tubes. The samples were centrifuged at 10000 rpm for 2 min, and the plasma was collected and stored at -80 °C until analysis.
A certain amount of the test compound was accurately weighed and dissolved in DMSO to 2 mg/mL as a stock solution. An appropriate volume of the compound stock solution was accurately transferred and diluted with acetonitrile to prepare a series of standard solutions. 4 µL of each standard solution was accurately transferred, and 36 µL of blank plasma was added, vortexed to mix, to prepare plasma samples equivalent to plasma concentrations of 1, 3, 5, 10, 30, 100, 300, 1000, 3000 ng/mL. Each concentration was analyzed in duplicate to establish a standard curve. 30 µL of plasma was taken, and 200 µL of an acetonitrile solution containing internal standard propranolol (5 ng/mL) was added. After vortex mixing, the samples were centrifuged at 4000 rpm for 10 min, and the supernatant was taken for LC-MS analysis. The LC-MS detection conditions were as follows: Column: YMC-Triart C18, 50×2.1 mm, S-3µm, 12 nm.
Mobile phase A: water (0.1% formic acid), mobile phase B: acetonitrile, flow rate: 0.5 mL/min, gradient elution as shown in Table 2 below: Table 2
After detecting plasma concentrations by LC-MS, pharmacokinetic parameters in rats after administration were calculated using a non-compartmental model with WinNonlin 6.1 software. Table 3: Pharmacokinetic Parameters of the Compound of the Present Disclosure in Rats (iv and PO Administration)

For another data set, the target named is T1, hERG channel (Homo sapiens, UniProt Q12809).
T1 construct: expressed in transfected cells
T1 sequence (Q12809 whole entry): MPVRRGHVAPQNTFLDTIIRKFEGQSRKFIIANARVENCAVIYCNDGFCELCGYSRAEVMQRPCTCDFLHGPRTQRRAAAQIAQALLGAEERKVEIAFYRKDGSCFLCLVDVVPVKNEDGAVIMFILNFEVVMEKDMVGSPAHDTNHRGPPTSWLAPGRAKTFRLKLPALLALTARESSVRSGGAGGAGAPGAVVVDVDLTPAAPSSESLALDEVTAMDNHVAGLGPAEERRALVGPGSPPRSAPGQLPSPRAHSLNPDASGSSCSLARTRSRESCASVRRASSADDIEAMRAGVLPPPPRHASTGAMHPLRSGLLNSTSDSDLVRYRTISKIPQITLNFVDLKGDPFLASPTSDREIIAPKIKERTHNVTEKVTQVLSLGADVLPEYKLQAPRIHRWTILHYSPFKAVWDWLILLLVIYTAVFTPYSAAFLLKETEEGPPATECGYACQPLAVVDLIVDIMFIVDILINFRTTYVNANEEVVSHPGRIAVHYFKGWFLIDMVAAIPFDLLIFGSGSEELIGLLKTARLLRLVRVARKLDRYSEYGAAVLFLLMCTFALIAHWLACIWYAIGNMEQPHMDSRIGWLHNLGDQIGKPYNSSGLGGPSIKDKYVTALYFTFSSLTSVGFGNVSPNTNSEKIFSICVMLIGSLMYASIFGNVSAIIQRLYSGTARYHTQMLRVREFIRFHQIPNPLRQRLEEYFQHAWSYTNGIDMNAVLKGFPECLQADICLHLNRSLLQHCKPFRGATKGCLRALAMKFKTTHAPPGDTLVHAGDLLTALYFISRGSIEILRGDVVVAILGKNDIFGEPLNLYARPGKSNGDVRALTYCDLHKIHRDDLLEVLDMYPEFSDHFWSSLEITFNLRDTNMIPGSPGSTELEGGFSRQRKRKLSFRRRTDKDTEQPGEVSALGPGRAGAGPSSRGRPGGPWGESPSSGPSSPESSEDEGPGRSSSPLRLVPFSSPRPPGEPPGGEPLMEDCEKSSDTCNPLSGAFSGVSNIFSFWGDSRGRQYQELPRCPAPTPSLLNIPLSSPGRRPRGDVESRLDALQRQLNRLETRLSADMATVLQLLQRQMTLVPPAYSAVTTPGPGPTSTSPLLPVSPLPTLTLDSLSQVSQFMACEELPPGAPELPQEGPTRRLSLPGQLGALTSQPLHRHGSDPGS
Briefly: Effect on hERG current in hERG-HEK293 cells (automated patch-clamp). In kind it is cell-based. Conditions: 30 µM compound, peak tail current vs 0.3% DMSO. Background: Block of hERG is tested as a sign of cardiac risk.

Consider `O=c1c(Cl)cccn1-c1ccc(N[C@H]2CC[C@H](Nc3ncc(OC(F)F)cn3)C2)nc1` [Example A9, 3-chloro-6'-(((1S,3S)-3-((5-(difluoromethoxy)pyrimidin-2-yl)amino)cyclopentyl)amino)-2H-[1,3 '-bipyridin]-2-one], for which the AUC(0-t) in data set [1] turned out to be 29400 ng·h/mL.

Consider `N#Cc1cccn(-c2ccc(N[C@H]3CC[C@H](Nc4ncc(OC(F)F)cn4)C3)nc2)c1=O` [Example A13, 6'-(((1S,3S)-3-((5-(difluoromethoxy)pyrimidin-2-yl)amino)cyclopentyl)amino)-2-oxo-2H-[1,3'-bipyridine]-3-carbonitrile], for which, in data set [1], the half-life was 6.02 h and the AUC(0-t) was determined as 42500 ng·h/mL.

Consider `O=c1c(F)cccn1-c1ccc(N[C@H]2CC[C@H](Nc3ncc(OC(F)F)cn3)C2)nc1` [Example A14, 6'-(((1S,3S)-3-((5-(difluoromethoxy)pyrimidin-2-yl)amino)cyclopentyl)amino)-3-fluoro-2H-[1,3' -bipyridin]-2-one], for which, in data set [1], the half-life is 4.42 h and the AUC(0-t) worked out at 31400 ng·h/mL.

As to `O=c1ccccn1-c1cnc(N[C@H]2CC[C@H](Nc3ncc(OC(F)F)cn3)C2)c(F)c1` [Example A17, 6'-(((1S,3S)-3-((5-(difluoromethoxy)pyrimidin-2-yl)amino)cyclopentyl)amino)-5'-fluoro-2H-[1,3 '-bipyridin]-2-one], in data set [1], the half-life was 2.97 h and the AUC(0-t) stood at 43800 ng·h/mL.

Turning to `O=C(O)c1cccn(-c2ccc(N[C@H]3CC[C@H](Nc4ncc(OC(F)F)cn4)C3)nc2)c1=O` [Example A22, 6'-(((1S,3S)-3-((5-(difluoromethoxy)pyrimidin-2-yl)amino)cyclopentyl)amino)-2-oxo-2H-[1,3'-bipyridine]-3-carboxylic acid], the “30 uM-hERG Inhibition” value at hERG channel amounted to 19.56.

As to `COc1cc(-n2ccccc2=O)cnc1N[C@H]1CC[C@H](Nc2ncc(OC(F)F)cn2)C1` [Example A27, 6'-(((1S,3S)-3-((5-(difluoromethoxy)pyrimidin-2-yl)amino)cyclopentyl)amino)-5'-methoxy-2H-[1,3'-bipyridin]-2-one], in data set [1], the half-life was 3.89 h and the AUC(0-t) was 32000 ng·h/mL. The “30 uM-hERG Inhibition” value at hERG channel is given as 40.72.

In the case of `O=c1cccnn1-c1cnc(N[C@H]2CC[C@H](Nc3ncc(OC(F)F)cn3)C2)c(F)c1` [Example A28, 2-(6-(((1S,3S)-3-((5-(difluoromethoxy)pyrimidin-2-yl)amino)cyclopentyl)amino)-5-fluoropyridin-3-yl)pyridazin-3(2H)-one], the AUC(0-t) in data set [1] stood at 70100 ng·h/mL.

As for `O=c1ccccn1-c1cnc(N[C@H]2CC[C@H](Nc3ncc(OC(F)F)cn3)C2)c(CO)c1` [Example A30], the “30 uM-hERG Inhibition” value at hERG channel is listed as 33.75.

In the case of `CC(O)c1cccn(-c2ccc(N[C@H]3CC[C@H](Nc4ncc(OC(F)F)cn4)C3)nc2)c1=O` (stereo partly drawn) [Example A35, 6'-(((1S,3S)-3-((5-(difluoromethoxy)pyrimidin-2-yl)amino)cyclopentyl)amino)-3-(1-hydroxyethyl)-2H-[1,3'-bipyridin]-2-one], in data set [1], the half-life is 14.9 h and the AUC(0-t) amounted to 60100 ng·h/mL. For the same compound, at hERG channel, the “30 uM-hERG Inhibition” value turned out to be 33.81.

In the case of `O=c1ccccn1-c1ccc(N[C@H]2CC[C@H](Nc3nc4ccccn4n3)C2)nc1` [Example C7, 6'-(((1S,3S)-3-([1,2,4]triazolo[1,5-a]pyridin-2-ylamino)cyclopentyl)amino)-2H-[1,3'-bipyridin]-2-one], the “hERG Inhibition (%)” value on hERG channel is under 50%.

Consider `COc1ccn2nc(N[C@H]3CC[C@H](Nc4ccc(-n5ccccc5=O)cn4)C3)nc2c1` [Example C8, 6'-(((1S,3S)-3-((7-methoxy-[1,2,4]triazolo[1,5-a]pyridin-2-yl)amino)cyclopentyl)amino)-2H-[1,3 '-bipyridin]-2-one], for which, at hERG channel, the “hERG Inhibition (%)” value was under 50%.

Take `O=c1ccccn1-c1cnc(N[C@H]2CC[C@H](Nc3nc4ccccn4n3)C2)cn1` [Example C9, 1-(5-(((1S,3S)-3-([1,2,4]triazolo[1,5-a]pyridin-2-ylamino)cyclopentyl)amino)pyrazin-2-yl)pyridi n-2(1H)-one]: the AUC(0-t) in data set [1] worked out at 40300 ng·h/mL.

`O=c1ccccn1-c1ccc(N[C@H]2CC[C@H](Nc3nc4cccnc4s3)C2)nc1` [Example C15]: on hERG channel, the “hERG Inhibition (%)” value is on record as under 50%.

For `O=c1ccccn1-c1cnc(N[C@H]2CC[C@H](Nc3nc4ccccn4n3)C2)c(F)c1` [Example C17, 6'-(((1S,3S)-3-([1,2,4]triazolo[1,5-a]pyridin-2-ylamino)cyclopentyl)amino)-5'-fluoro-2H-[1,3'-bipyridin]-2-one], the AUC(0-t) in data set [1] was determined as 39800 ng·h/mL. Also, the “hERG Inhibition (%)” value on hERG channel is on record as under 50%.

For `O=c1ccccn1-c1cnc(N[C@H]2CC[C@H](Nc3nc4nccnc4s3)C2)c(F)c1` [Example C19], the “hERG Inhibition (%)” value at hERG channel was under 50%.

In the case of `COc1ccc2nc(N[C@H]3CC[C@H](Nc4ccc(-n5ccccc5=O)cn4)C3)nn2c1` [Example C21], the “hERG Inhibition (%)” value at hERG channel was under 50%.

In the case of `O=c1ccccn1-c1cnc(N[C@H]2CC[C@H](Nc3nc4cccnc4s3)C2)c(F)c1` [Example C22], the AUC(0-t) in data set [1] is 37700 ng·h/mL. The “hERG Inhibition (%)” value at hERG channel is under 50%.

For `C#Cc1ccc2nc(N[C@H]3CC[C@H](Nc4ccc(-n5ccccc5=O)cn4)C3)nn2c1` [Example C26], the “hERG Inhibition (%)” value on hERG channel is under 50%.

For the compound `O=c1ccccn1-c1ccc(N[C@H]2CC[C@H](Nc3nc4ncccn4n3)C2)nc1` [Example C30], the “hERG Inhibition (%)” value on hERG channel was under 50%.

In the case of `Cc1ccc2nc(N[C@H]3CC[C@H](Nc4ccc(-n5ccccc5=O)cn4)C3)nn2c1` [Example C32], the “hERG Inhibition (%)” value at hERG channel was under 50%.

For `O=c1cccnn1-c1cnc(N[C@H]2CC[C@H](Nc3nc4cccnc4s3)C2)c(F)c1` [Example C34], the AUC(0-t) in data set [1] turned out to be 41400 ng·h/mL. The “hERG Inhibition (%)” value on hERG channel is under 50%.

For `O=c1cccnn1-c1ccc(N[C@H]2CC[C@H](Nc3nc4cccnc4s3)C2)nc1` [Example C35], in data set [1], the AUC(0-t) was found to be 39700 ng·h/mL. Moreover, the “hERG Inhibition (%)” value on hERG channel is under 50%.

Turning to `O=c1c(Cl)cccn1-c1cnc(N[C@H]2CC[C@H](Nc3nc4ccccn4n3)C2)c(F)c1` [Example C36], the “hERG Inhibition (%)” value on hERG channel is given as under 50%.

Regarding `O=c1cccnn1-c1ccc(N[C@H]2CC[C@H](Nc3nc4ccccn4n3)C2)nc1` [Example C43], on hERG channel, the “hERG Inhibition (%)” value is on record as under 50%.

For the compound `O=c1cccnn1-c1cnc(N[C@H]2CC[C@H](Nc3nc4cccnc4o3)C2)c(F)c1` [Example C48], the “hERG Inhibition (%)” value at hERG channel is under 50%.

With `O=c1ccccn1-c1cnc(N[C@H]2CC[C@H](Nc3nc4cccnc4o3)C2)c(F)c1` [Example C53], the “hERG Inhibition (%)” value at hERG channel is reported as under 50%.

As for `O=c1ccccn1-c1cnc(N[C@H]2CC[C@H](Nc3nc4cccnc4[nH]3)C2)c(F)c1` [Example C56], at hERG channel, the “hERG Inhibition (%)” value is recorded as under 50%.

For `O=c1c(C2CC2)cccn1-c1ccc(N[C@H]2CC[C@H](Nc3nc4cccnc4[nH]3)C2)nc1` [Example C58], the “hERG Inhibition (%)” value on hERG channel is under 50%.

As for `O=c1c(Cl)cccn1-c1cnc(N[C@H]2CC[C@H](Nc3nc4cccnc4[nH]3)C2)c(F)c1` [Example C61], the “hERG Inhibition (%)” value on hERG channel is recorded as under 50%.

In the case of `Cn1c(=O)n(-c2ccc(N[C@H]3CC[C@H](Nc4nc5ccccn5n4)C3)nc2)c2cc(C#N)ccc21` [Example C64], the “hERG Inhibition (%)” value on hERG channel is on record as under 50%.

Consider `O=c1c(Cl)ccnn1-c1ccc(N[C@H]2CC[C@H](Nc3nc4ccccn4n3)C2)nc1` [Example C65], for which the “hERG Inhibition (%)” value at hERG channel is listed as under 50%.

Consider `O=c1cccnn1-c1ccc(N[C@H]2CC[C@H](Nc3nc4cccnc4[nH]3)C2)nc1` [Example C66], for which the “hERG Inhibition (%)” value on hERG channel was under 50%.

As to `O=c1c(Cl)ccnn1-c1cnc(N[C@H]2CC[C@H](Nc3nc4ccccn4n3)C2)c(F)c1` [Example C67], the “hERG Inhibition (%)” value on hERG channel is recorded as under 50%.

With `O=c1cccnn1-c1cnc(N[C@H]2CC[C@H](Nc3nc4cccnc4[nH]3)C2)c(F)c1` [Example C69], on hERG channel, the “hERG Inhibition (%)” value is recorded as under 50%.

Take `O=c1ccc2cccnc2n1-c1ccc(N[C@H]2CC[C@H](Nc3nc4ccccn4n3)C2)nc1` [Example C71]: at hERG channel, the “hERG Inhibition (%)” value is under 50%.

Take `O=c1ccc2cccnc2n1-c1ccc(N[C@H]2CC[C@H](Nc3nc4cccnc4s3)C2)nc1` [Example C84]: on hERG channel, the “hERG Inhibition (%)” value is reported as under 50%.

The record behind these values is patent EP4786462A1, “PYRIDONE COMPOUNDS AND PREPARATION METHOD THEREFOR, AND APPLICATION” (Shenzhen Salubris Pharmaceuticals Co., Ltd., priority 2023, dated 2025).
